Legend:
BRD9 = biological target: T1, BRD9 (Homo sapiens, UniProt Q9H8M2); assay: SPR (Biacore T200, NiHC1500M chip); format: binding
T1 construct: bromodomain
T1 sequence (Q9H8M2 134-240 limits assumed): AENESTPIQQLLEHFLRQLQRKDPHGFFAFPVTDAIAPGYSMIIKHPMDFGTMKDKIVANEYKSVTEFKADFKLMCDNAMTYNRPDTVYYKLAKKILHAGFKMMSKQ

CRBN = biological target: T2, CRBN (Homo sapiens, UniProt Q96SW2); assay: co-IP of BPTF with CRBN in 8d-treated Huh7 cells; pomalidomide rescue; N-methyl glutarimide control […] inactive; format: cell-based
T2 construct: with BPTF

BPTF = biological target: T3, BPTF (Homo sapiens, UniProt Q12830); assay: SPR (Biacore T200, NiHC1500M chip); format: binding
T3 construct: bromodomain

CECR2 = biological target: T4, CECR2 (Homo sapiens, UniProt Q9BXF3); assay: SPR positive control (Figure S7D); format: binding
T4 construct: bromodomain
T4 sequence (Q9BXF3 434-538 limits assumed): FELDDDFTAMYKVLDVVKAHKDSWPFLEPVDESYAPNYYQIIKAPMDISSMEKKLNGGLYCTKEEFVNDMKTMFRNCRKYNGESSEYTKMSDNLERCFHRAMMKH

T2 sequence (Q96SW2 whole entry, other chains not shown): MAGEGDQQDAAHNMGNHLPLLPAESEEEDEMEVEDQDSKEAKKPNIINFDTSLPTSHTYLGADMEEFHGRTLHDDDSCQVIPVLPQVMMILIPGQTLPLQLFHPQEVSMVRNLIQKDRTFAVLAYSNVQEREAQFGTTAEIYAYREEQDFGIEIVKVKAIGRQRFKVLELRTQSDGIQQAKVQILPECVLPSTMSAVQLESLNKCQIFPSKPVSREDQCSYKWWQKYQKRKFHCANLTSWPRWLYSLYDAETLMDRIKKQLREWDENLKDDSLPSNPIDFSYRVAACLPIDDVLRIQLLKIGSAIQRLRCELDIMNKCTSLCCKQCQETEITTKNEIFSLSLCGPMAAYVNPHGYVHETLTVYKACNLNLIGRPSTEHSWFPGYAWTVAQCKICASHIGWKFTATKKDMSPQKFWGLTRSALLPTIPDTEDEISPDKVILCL

Row | Kd (BRD9) [µM] | Kd (BPTF) [µM] | Compound | co-IP of BPTF with CRBN in 8d-treated Huh7 cells; pomalidomide rescue; N-methyl (CRBN) | CECR2 bromodomain binding affinity (CECR2)
1 | 28.8 | 0.563 | CS(=O)(=O)c1nc(NCCCn2cccn2)cc(-c2ccc(NCc3cn(CCOCCOCCOCCOCCOCCNc4cccc5c4C(=O)N(C4CCC(=O)NC4=O)C5=O)nn3)cc2)n1 (stereo not shown) [8d, 4-((17-(4-(((4-(6-((3-(1H-pyrazol-1-yl)propyl)amino)-2-(methylsulfonyl)pyrimidin-4-yl)phenyl)amino)methyl)-1H-1,2,3-triazol-1-yl)-3,6,9,12,15 pentaoxaheptadecyl)amino)-2-(2,6-dioxopiperidin-3-yl) isoindoline-1,3-dione] | through direct recruitment of CRBN, 8d facilitates the proteasome-dependent selective degradation of BPTF | 
2 |  |  | CN(C)CCCOc1ccc(-c2cc(NCCCn3cccn3)nc(S(C)(=O)=O)n2)cc1 [TP238] |  | minimal affinity for the CECR2 bromodomain (Figure S7D), which is known to strongly bind to TP238 as a positive control
